17 compounds from PubChem BioAssay AID248 (DTP/NCI, 2004) can be followed below.

Several values for one entry are separate records, joined by “and”; a condition that tells them apart may be missing. Equal entries are not always repeated. Toxic doses and inconclusive results are not listed.

This test relates to L1210 leukemia ip in BDF1 mice, survival T/C. The experiment in a line: NCI In Vivo Anticancer Drug Screen. Data for tumor model L1210 Leukemia (intraperitoneal) in B6D2F1 (BDF1) mice. The note with it: endpoint: mean survival time, higher = longer survival. The gist of the method:
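Value reflects the ratio of survival in compound-treated mice to survival in vehicle-treated controls, with both groups carrying the same transplanted tumor.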

Setting [1] is: dose: 100.0 mg/kg/injection, schedule: Q01DX009 (ip), vehicle: saline with Tween-80.
Where [2] appears, read: dose: 100.0 mg/kg/injection, schedule: Q04DX002 (ip), vehicle: saline with Tween-80.
The mark [3] stands for this setting: dose: 200.0 mg/kg/injection, schedule: Q01DX009 (ip), vehicle: saline with Tween-80.
The mark [4] stands for this setting: dose: 200.0 mg/kg/injection, schedule: Q04DX002 (ip), vehicle: saline with Tween-80.
The mark [5] stands for this setting: dose: 400.0 mg/kg/injection, schedule: Q04DX002 (ip), vehicle: saline with Tween-80.
Where [6] appears, read: dose: 25.0 mg/kg/injection, schedule: Q01DX009 (ip), vehicle: Klucel (hydroxypropylcellulose) (HPC).
The mark [7] stands for this setting: dose: 100.0 mg/kg/injection, schedule: Q04DX003 (ip), vehicle: Klucel (hydroxypropylcellulose) (HPC).
Where [8] appears, read: dose: 50.0 mg/kg/injection, schedule: Q01DX001 (ip), vehicle: saline.
The mark [9] stands for this setting: dose: 100.0 mg/kg/injection, schedule: Q01DX001 (ip), vehicle: saline.
[10] abbreviates: dose: 200.0 mg/kg/injection, schedule: Q01DX001 (ip), vehicle: saline.
The mark [11] stands for this setting: dose: 400.0 mg/kg/injection, schedule: Q01DX001 (ip), vehicle: saline.
Where [12] appears, read: dose: 100.0 mg/kg/injection, schedule: Q04DX003 (ip), vehicle: saline.

With `NS(=O)(=O)c1ccc(NC(=S)NC(=O)c2ccc(Cl)cc2Cl)cc1`, the T/C reads like this: under setting [1], 89 % of control and 90 % of control; under setting [2], 101 % of control and 92 % of control; under setting [3], 96 % of control and 89 % of control; under setting [4], 97 % of control and 90 % of control; (dose: 400.0 mg/kg/injection, schedule: Q01DX009 (ip), vehicle: saline with Tween-80) 93 % of control and 89 % of control; under setting [5], 86 % of control and 92 % of control.

`CCCCNC(=O)Oc1c(Cl)cc(Cl)c(Cl)c1[N+](=O)[O-]`: the T/C runs as follows: (dose: 12.5 mg/kg/injection, schedule: Q01DX009 (ip), vehicle: Klucel (hydroxypropylcellulose) (HPC)) 96 % of control; under setting [6], 112 % of control; (dose: 50.0 mg/kg/injection, schedule: Q01DX009 (ip), vehicle: Klucel (hydroxypropylcellulose) (HPC)) 101 % of control.

As to `CC(=O)OC1CCC2(C)C(CCC3C4CC(N5CC5)C(C(C)=O)C4(C)CC(=O)C32)C1` (configuration not stated), the T/C is, setting by setting: (dose: 100.0 mg/kg/injection, schedule: Q01DX001 (sc), vehicle: steriod suspending solution) 99 % of control; (dose: 200.0 mg/kg/injection, schedule: Q01DX001 (sc), vehicle: steriod suspending solution) 100 % of control; (dose: 400.0 mg/kg/injection, schedule: Q01DX001 (sc), vehicle: steriod suspending solution) 94 % of control.

With `CCOC(=O)c1ccc(NC(=O)Nc2nccs2)cc1`, the T/C runs as follows: (dose: 88.0 mg/kg/injection, schedule: Q01DX009 (ip), vehicle: saline with Tween-80) 113 % of control; under setting [1], 123 % of control; (dose: 132.0 mg/kg/injection, schedule: Q01DX009 (ip), vehicle: saline with Tween-80) 109 % of control; under setting [3], 122 % of control; (dose: 300.0 mg/kg/injection, schedule: Q01DX009 (ip), vehicle: saline with Tween-80) 124 % of control.

Regarding `N=C(N)c1cccc(CCCCc2ccc(N)cc2)c1`, the T/C reads like this: under setting [7], 94 % of control; (dose: 200.0 mg/kg/injection, schedule: Q04DX003 (ip), vehicle: Klucel (hydroxypropylcellulose) (HPC)) 99 % of control.

In the case of `CCN(CC)C(=O)c1cc([N+](=O)[O-])ccc1OCc1ccccc1`, the T/C (dose: 25.0 mg/kg/injection, schedule: Q04DX002 (ip), vehicle: saline with Tween-80) was 98 % of control; the T/C (dose: 50.0 mg/kg/injection, schedule: Q04DX002 (ip), vehicle: saline with Tween-80) was 98 % of control; the T/C under setting [2] was 110 % of control and 91 % of control; the T/C under setting [4] was 89 % of control; the T/C under setting [5] was 95 % of control.

Take `CC(=O)Nc1ccc2c(c1)OCO2`: the T/C is 101 % of control under setting [1]; 107 % of control (dose: 100.0 mg/kg/injection, schedule: Q04DX003 (ip), vehicle: saline with Tween-80); 102 % of control under setting [3]; 108 % of control (dose: 200.0 mg/kg/injection, schedule: Q04DX003 (ip), vehicle: saline with Tween-80); 103 % of control (dose: 400.0 mg/kg/injection, schedule: Q04DX003 (ip), vehicle: saline with Tween-80).

Regarding `NC(CSS(=O)(=O)O)=NCCc1c[nH]c(=S)[nH]1`, the T/C runs as follows: (dose: 12.5 mg/kg/injection, schedule: Q04DX002 (ip), vehicle: Klucel (hydroxypropylcellulose) (HPC)) 107 % of control; (dose: 25.0 mg/kg/injection, schedule: Q04DX002 (ip), vehicle: Klucel (hydroxypropylcellulose) (HPC)) 91 % of control.

With `CCOC(=O)C(C(=O)CC(C)C)C(C)C` (configuration not stated), the T/C runs as follows: under setting [8], 103 % of control; under setting [9], 103 % of control; under setting [10], 109 % of control; under setting [11], 101 % of control.

Consider `O=S1(=O)CC(Cl)(Br)C1` (tested in a mixture with another compound), for which the T/C reads like this: (dose: 100.0 mg/kg/injection, schedule: Q04DX002 (ip), vehicle: Klucel (hydroxypropylcellulose) (HPC)) 94 % of control; (dose: 200.0 mg/kg/injection, schedule: Q04DX002 (ip), vehicle: Klucel (hydroxypropylcellulose) (HPC)) 97 % of control; (dose: 400.0 mg/kg/injection, schedule: Q04DX002 (ip), vehicle: Klucel (hydroxypropylcellulose) (HPC)) 89 % of control.

Regarding `CCOC(=O)C(NC(C)=O)(C(=O)OCC)C(C)C(O)c1ccc(OC)c(OC)c1O` (configuration not stated), the T/C under setting [12] was 92 % of control; the T/C (dose: 200.0 mg/kg/injection, schedule: Q04DX003 (ip), vehicle: saline) was 113 % of control; the T/C (dose: 400.0 mg/kg/injection, schedule: Q04DX003 (ip), vehicle: saline) is 103 % of control.

For `Cc1ccc(C2(C)CCC(=O)c3cc(C)c(C)cc32)cc1C` (configuration not stated), the T/C under setting [8] is 97 % of control, the T/C under setting [9] is 100 % of control, the T/C under setting [10] is 94 % of control and the T/C under setting [11] is 103 % of control.

For `N#CCC1C(=O)Nc2ccccc21` (configuration not stated), the T/C under setting [9] is 101 % of control, the T/C under setting [10] was 98 % of control and the T/C under setting [11] is 101 % of control.

Turning to `O=C(Nc1ccc(C2=NCCN2)cc1)C1CCC(C(=O)Nc2ccc(C3=NCCN3)cc2)CC1` (configuration not stated), the T/C runs as follows: (dose: 0.46 mg/kg/injection, schedule: Q01DX Z (ip), vehicle: carboxymethylcellulose (CMC)) 103 % of control; (dose: 0.93 mg/kg/injection, schedule: Q01DX Z (ip), vehicle: carboxymethylcellulose (CMC)) 112 % of control; (dose: 3.75 mg/kg/injection, schedule: Q01DX Z (ip), vehicle: carboxymethylcellulose (CMC)) 152 % of control; (dose: 11.0 mg/kg/injection, schedule: Q01DX015 (ip), vehicle: methylcellulose (MC)) 197 % of control; (dose: 15.0 mg/kg/injection, schedule: Q01DX Z (ip), vehicle: carboxymethylcellulose (CMC)) 227 % of control; (dose: 22.0 mg/kg/injection, schedule: Q01DX015 (ip), vehicle: methylcellulose (MC)) 262 % of control. In addition, the T/C runs as follows: (dose: 30.0 mg/kg/injection, schedule: Q01DX Z (ip), vehicle: carboxymethylcellulose (CMC)) 250 % of control; (dose: 31.0 mg/kg/injection, schedule: Q01DX015 (ip), vehicle: methylcellulose (MC)) 284 % of control; (dose: 45.0 mg/kg/injection, schedule: Q01DX015 (ip), vehicle: methylcellulose (MC)) 335 % of control; (dose: 60.0 mg/kg/injection, schedule: Q01DX Z (ip), vehicle: carboxymethylcellulose (CMC)) 173 % of control; (dose: 62.0 mg/kg/injection, schedule: Q01DX015 (ip), vehicle: methylcellulose (MC)) 229 % of control; (dose: 125.0 mg/kg/injection, schedule: Q01DX015 (ip), vehicle: methylcellulose (MC)) 201 % of control. Moreover, the T/C by setting is: (dose: 125.0 mg/kg/injection, schedule: Q01DX Z (ip), vehicle: carboxymethylcellulose (CMC)) 102 % of control; (dose: 250.0 mg/kg/injection, schedule: Q01DX001 (ip), vehicle: methylcellulose (MC)) 178 % of control; (dose: 250.0 mg/kg/injection, schedule: Q01DX015 (ip), vehicle: methylcellulose (MC)) 160 % of control; (dose: 750.0 mg/kg/injection, schedule: Q01DX001 (ip), vehicle: methylcellulose (MC)) 243 % of control; (dose: 1500.0 mg/kg/injection, schedule: Q01DX001 (ip), vehicle: methylcellulose (MC)) 202 % of control and 239 % of control and 253 % of control.

With `COc1ccc(NS(=O)c2ccc(Oc3ccccc3)cc2)cc1` (configuration not stated), the T/C is 106 % of control (dose: 25.6 mg/kg/injection, schedule: Q04DX002 (ip), vehicle: saline with Tween-80); 112 % of control (dose: 64.0 mg/kg/injection, schedule: Q04DX002 (ip), vehicle: saline with Tween-80); 101 % of control (dose: 160.0 mg/kg/injection, schedule: Q04DX002 (ip), vehicle: saline with Tween-80); 93 % of control under setting [5].

Regarding `Cc1cc(=O)c(CCl)n[nH]1`, the T/C is, setting by setting: under setting [6], 115 % of control; (dose: 25.0 mg/kg/injection, schedule: Q04DX003 (ip), vehicle: Klucel (hydroxypropylcellulose) (HPC)) 120 % of control; (dose: 50.0 mg/kg/injection, schedule: Q04DX003 (ip), vehicle: Klucel (hydroxypropylcellulose) (HPC)) 116 % of control; under setting [7], 97 % of control and 89 % of control.

Take `COc1cc2ccc3c(c2cc1OC)CN(C)CC3`: the T/C by setting is: (dose: 12.5 mg/kg/injection, schedule: Q01DX009 (ip), vehicle: saline) 91 % of control; (dose: 25.0 mg/kg/injection, schedule: Q01DX009 (ip), vehicle: saline) 97 % of control; (dose: 50.0 mg/kg/injection, schedule: Q01DX009 (ip), vehicle: saline) 100 % of control; under setting [12], 103 % of control.
